Laboratory results from ChEMBL document CHEMBL6177933, “Discovery of Sophoridine α-Aryl Propionamide Derivative ZM600 as a Novel Antihepatic Fibrosis Agent” (J Med Chem, 2024).
Calls of active or inactive are those of the source. The rule behind the calls is not given here.

What was measured:
[1] = test system: Mus musculus; assay: Antifibrotic activity against BDL-induced C57BL/6J mouse hepatic fibrosis model assessed as reduction in alphaSMA expression in liver at 15 to 30 mg/kg, po administered via gavage starting from 3 days post-BDL by Western blot analysis; assay type: functional, organism-based; details: dose 15-30 mg/kg
[2] = test system: RAW264.7; assay: Antiinflammatory activity in mouse RAW264.7 cells assessed as inhibition of TGFbeta1-induced alpha-SMA expression at 5 to 20 uM preincubated for 2 hrs […] and measured after 48 hrs by Western blot analysis; assay type: functional, cell-based; details: dose 5-20 µM, time 50.0 hrs
[3] = test system: Mus musculus; assay: Antifibrotic activity against CCL4-induced C57BL/6J mouse hepatic fibrosis model assessed as reduction in infiltration of inflammatory cells in liver at 15 to 30 mg/kg, po administered via gavage for 4 weeks starting from 5th week of CCL4 stimulation by H and E staining based histopathological analysis; assay type: functional, organism-based; details: dose 15-30 mg/kg
[4] = test system: LX-2; assay: Inhibition of FBS-induced cell migration in human LX-2 cells assessed as reduction in number of migrated cells measured after 24 hrs by crystal violet staining based transwell assay; assay type: functional; details: dose 5-20 µM
[5] = test system: Mus musculus; assay: Antifibrotic activity against CCL4-induced C57BL/6J mouse hepatic fibrosis model assessed as reduction in liver edema at 15 to 30 mg/kg, po administered via gavage for 4 weeks starting from 5th week of CCL4 stimulation by H and E staining based histopathological analysis; assay type: functional, organism-based; details: dose 15-30 mg/kg
[6] = test system: Mus musculus; assay: In vivo inhibition of Smad2 phosphorylation in BDL-induced C57BL/6J mouse hepatic fibrosis model at 15 to 30 mg/kg, po administered via gavage starting from 3 days post-BDL by Western blot analysis; assay type: functional, organism-based; details: dose 15-30 mg/kg
[7] = test system: Mus musculus; assay: Antifibrotic activity against CCL4-induced C57BL/6J mouse hepatic fibrosis model assessed as reduction in collagen deposition in liver at 15 to 30 mg/kg, po administered via gavage for 4 weeks starting from 5th week of CCL4 stimulation by Sirius red and Masson's trichrome staining based assay; assay type: functional, organism-based; details: dose 15-30 mg/kg
[8] = test system: Mus musculus; assay: Antifibrotic activity against CCL4-induced C57BL/6J mouse hepatic fibrosis model assessed as reduction in necrosis of hepatocytes at 15 to 30 mg/kg, po administered via gavage for 4 weeks starting from 5th week of CCL4 stimulation by H and E staining based histopathological analysis; assay type: functional, organism-based; details: dose 15-30 mg/kg
[9] = test system: Mus musculus; assay: In vivo inhibition of AKT phosphorylation in CCL4-induced C57BL/6J mouse hepatic fibrosis model at 15 to 30 mg/kg, po administered via gavage for 4 weeks starting from 5th week of CCL4 stimulation by Western blot analysis; assay type: functional, organism-based; details: dose 15-30 mg/kg
[10] = test system: RAW264.7; assay: Antiinflammatory activity in mouse RAW264.7 cells assessed as inhibition of LPS-induced alpha-SMA expression at 5 to 20 uM preincubated for 2 hrs followed by LPS stimulation and measured after 48 hrs by Western blot analysis; assay type: functional, cell-based; details: dose 5-20 µM, time 50.0 hrs
[11] = test system: Mus musculus; assay: In vivo inhibition of JNK phosphorylation in CCL4-induced C57BL/6J mouse hepatic fibrosis model at 15 to 30 mg/kg, po administered via gavage for 4 weeks starting from 5th week of CCL4 stimulation by Western blot analysis; assay type: functional, organism-based; details: dose 15-30 mg/kg
[12] = test system: RAW264.7; assay: Antiinflammatory activity in mouse RAW264.7 cells assessed as inhibition of LPS-induced collagen 1 expression at 5 to 20 uM preincubated for 2 hrs followed by LPS stimulation and measured after 48 hrs by Western blot analysis; assay type: functional, cell-based; details: dose 5-20 µM, time 50.0 hrs
[13] = Cytotoxicity against human LX-2 cells assessed as reduction in cell viability measured after 48 hrs by CCK-8 assay; assay type: toxicity, cell-based
[14] = test system: RAW264.7; assay: Antiinflammatory activity in mouse RAW264.7 cells assessed as inhibition of TGFbeta1-induced collagen 1 expression at 5 to 20 uM preincubated for 2 hrs […] and measured after 48 hrs by Western blot analysis; assay type: functional, cell-based; details: dose 5-20 µM, time 50.0 hrs
[15] = test system: Mus musculus; assay: In vivo inhibition of ERK1/2 phosphorylation in BDL-induced C57BL/6J mouse hepatic fibrosis model at 15 to 30 mg/kg, po administered via gavage starting from 3 days post-BDL by Western blot analysis; assay type: functional, organism-based; details: dose 15-30 mg/kg
[16] = biological target: Nuclear factor NF-kappa-B complex (Homo sapiens) (UniProt Q00653+P19838+Q04206); assay: Inhibition of LPS-induced NFkappaB activation in human LX-2 cells assessed as reduction in p65 phosphorylation preincubated for 2 hrs followed by LPS stimulation and measured after 2 hrs by Western blot analysis; assay type: cell-based; details: dose 5-20 µM, time 4.0 hrs
Nuclear factor NF-kappa-B complex (Homo sapiens), sequence (P19838 whole entry, looked up): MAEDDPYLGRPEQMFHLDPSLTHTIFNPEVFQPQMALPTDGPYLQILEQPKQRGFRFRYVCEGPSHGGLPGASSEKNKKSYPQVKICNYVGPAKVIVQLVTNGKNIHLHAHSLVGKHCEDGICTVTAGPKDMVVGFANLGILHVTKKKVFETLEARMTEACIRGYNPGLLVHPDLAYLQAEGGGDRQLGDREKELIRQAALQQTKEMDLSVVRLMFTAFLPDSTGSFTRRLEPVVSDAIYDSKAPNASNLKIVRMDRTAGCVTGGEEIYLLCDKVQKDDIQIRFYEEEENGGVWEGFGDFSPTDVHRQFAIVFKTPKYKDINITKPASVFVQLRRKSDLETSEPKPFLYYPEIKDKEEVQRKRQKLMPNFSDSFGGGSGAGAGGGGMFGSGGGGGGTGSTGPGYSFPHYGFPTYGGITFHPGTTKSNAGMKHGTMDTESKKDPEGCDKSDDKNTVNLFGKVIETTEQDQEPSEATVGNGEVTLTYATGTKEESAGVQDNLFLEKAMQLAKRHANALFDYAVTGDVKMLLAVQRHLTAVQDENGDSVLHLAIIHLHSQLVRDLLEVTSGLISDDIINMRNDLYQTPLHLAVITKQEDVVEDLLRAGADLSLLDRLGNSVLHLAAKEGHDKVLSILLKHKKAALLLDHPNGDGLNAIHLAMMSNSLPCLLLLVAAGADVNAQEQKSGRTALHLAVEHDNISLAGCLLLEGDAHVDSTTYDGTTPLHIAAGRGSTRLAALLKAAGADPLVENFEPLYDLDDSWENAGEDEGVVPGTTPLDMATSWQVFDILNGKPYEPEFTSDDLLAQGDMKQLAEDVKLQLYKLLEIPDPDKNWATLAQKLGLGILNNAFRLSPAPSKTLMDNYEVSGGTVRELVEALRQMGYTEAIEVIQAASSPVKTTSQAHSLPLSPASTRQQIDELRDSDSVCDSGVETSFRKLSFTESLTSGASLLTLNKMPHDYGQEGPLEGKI
Nuclear factor NF-kappa-B complex (Homo sapiens), sequence (Q00653 whole entry, looked up): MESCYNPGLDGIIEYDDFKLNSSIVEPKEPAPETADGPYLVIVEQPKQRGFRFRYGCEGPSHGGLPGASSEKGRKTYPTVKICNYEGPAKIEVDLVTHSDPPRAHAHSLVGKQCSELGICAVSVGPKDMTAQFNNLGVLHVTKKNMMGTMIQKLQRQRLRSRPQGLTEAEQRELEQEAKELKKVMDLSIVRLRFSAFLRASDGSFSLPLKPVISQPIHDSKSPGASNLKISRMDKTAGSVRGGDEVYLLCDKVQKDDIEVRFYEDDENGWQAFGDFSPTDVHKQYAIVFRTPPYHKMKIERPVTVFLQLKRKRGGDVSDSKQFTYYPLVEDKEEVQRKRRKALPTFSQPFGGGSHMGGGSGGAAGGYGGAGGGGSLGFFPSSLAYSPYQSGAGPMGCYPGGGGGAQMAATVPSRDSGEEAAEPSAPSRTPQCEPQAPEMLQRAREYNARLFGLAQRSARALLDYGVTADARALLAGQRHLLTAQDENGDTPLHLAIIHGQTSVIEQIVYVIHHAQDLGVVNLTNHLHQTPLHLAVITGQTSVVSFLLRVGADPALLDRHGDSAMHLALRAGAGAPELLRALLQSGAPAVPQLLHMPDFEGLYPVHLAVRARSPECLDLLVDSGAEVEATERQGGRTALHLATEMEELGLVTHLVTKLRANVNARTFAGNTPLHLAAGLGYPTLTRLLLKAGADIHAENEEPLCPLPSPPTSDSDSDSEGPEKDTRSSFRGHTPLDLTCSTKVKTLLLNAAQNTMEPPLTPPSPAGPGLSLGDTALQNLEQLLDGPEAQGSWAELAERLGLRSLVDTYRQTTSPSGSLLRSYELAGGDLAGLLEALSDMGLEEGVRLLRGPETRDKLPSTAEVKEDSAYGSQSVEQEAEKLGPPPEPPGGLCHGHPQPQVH
Nuclear factor NF-kappa-B complex (Homo sapiens), sequence (Q04206 whole entry, looked up): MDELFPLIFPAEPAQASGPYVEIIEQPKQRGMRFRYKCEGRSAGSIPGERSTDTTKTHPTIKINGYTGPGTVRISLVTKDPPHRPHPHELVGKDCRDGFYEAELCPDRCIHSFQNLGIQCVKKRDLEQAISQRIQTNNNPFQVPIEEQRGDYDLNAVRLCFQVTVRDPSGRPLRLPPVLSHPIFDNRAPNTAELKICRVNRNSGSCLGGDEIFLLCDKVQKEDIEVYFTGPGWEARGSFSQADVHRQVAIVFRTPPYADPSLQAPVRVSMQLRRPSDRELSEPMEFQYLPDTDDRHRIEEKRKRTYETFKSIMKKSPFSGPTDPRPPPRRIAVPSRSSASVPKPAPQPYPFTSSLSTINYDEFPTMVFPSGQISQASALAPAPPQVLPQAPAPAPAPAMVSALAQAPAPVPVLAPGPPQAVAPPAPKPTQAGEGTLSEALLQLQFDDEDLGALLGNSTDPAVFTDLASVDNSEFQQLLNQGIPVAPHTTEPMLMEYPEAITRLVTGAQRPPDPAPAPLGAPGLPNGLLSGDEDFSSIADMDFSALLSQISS

[17] = biological target: MAP kinase p38 (Homo sapiens) (UniProt O15264+Q15759+Q16539+P53778); assay: Inhibition of TGFbeta1-induced p38 phosphorylation in human LX-2 cells at 5 to 20 uM preincubated for 2 hrs followed by […] stimulation and measured after 2 hrs by Western blot analysis; assay type: cell-based; details: dose 5-20 µM, time 4.0 hrs
[18] = test system: Mus musculus; assay: Antifibrotic activity against BDL-induced C57BL/6J mouse hepatic fibrosis model assessed as reduction in alphaSMA mRNA expression in liver at 15 to 30 mg/kg, po administered via gavage starting from 3 days post-BDL by qRT-PCR analysis; assay type: functional, organism-based; details: dose 15-30 mg/kg
[19] = test system: RAW264.7; assay: Inhibition of LPS-induced NFkappaB transcriptional activity in mouse RAW264.7 cells at 20 uM preincubated for 2 hrs followed by LPS stimulation and measured after 6 hrs by luciferase reporter gene assay relative to control; assay type: cell-based; details: time 8.0 hrs
[20] = test system: Mus musculus; assay: Antifibrotic activity against CCL4-induced C57BL/6J mouse hepatic fibrosis model assessed as reduction in rough surface of liver at 15 to 30 mg/kg, po administered via gavage for 4 weeks starting from 5th week of CCL4 stimulation; assay type: functional, organism-based; details: dose 15-30 mg/kg
[21] = test system: Mus musculus; assay: In vivo inhibition of AKT phosphorylation in BDL-induced C57BL/6J mouse hepatic fibrosis model at 15 to 30 mg/kg, po administered via gavage starting from 3 days post-BDL by Western blot analysis; assay type: functional, organism-based; details: dose 15-30 mg/kg
[22] = test system: Mus musculus; assay: Antifibrotic activity against CCL4-induced C57BL/6J mouse hepatic fibrosis model assessed as reduction in collagen 1 expression in liver at 15 to 30 mg/kg, po administered via gavage for 4 weeks starting from 5th week of CCL4 stimulation by qRT-PCR analysis; assay type: functional, organism-based; details: dose 15-30 mg/kg
[23] = test system: Mus musculus; assay: In vivo inhibition of ERK1/2 phosphorylation in CCL4-induced C57BL/6J mouse hepatic fibrosis model at 15 to 30 mg/kg, po administered via gavage for 4 weeks starting from 5th week of CCL4 stimulation by Western blot analysis; assay type: functional, organism-based; details: dose 15-30 mg/kg
[24] = test system: Mus musculus; assay: Antifibrotic activity against CCL4-induced C57BL/6J mouse hepatic fibrosis model assessed as reduction in alphaSMA expression in liver at 15 to 30 mg/kg, po administered via gavage for 4 weeks starting from 5th week of CCL4 stimulation by qRT-PCR analysis; assay type: functional, organism-based; details: dose 15-30 mg/kg
[25] = test system: RAW264.7; assay: Antiinflammatory activity in mouse RAW264.7 cells assessed as inhibition of TGFbeta1-induced collagen 1 mRNA expression at 5 to 20 uM preincubated for 2 hrs […] and measured after 48 hrs by qRT-PCR analysis; assay type: functional, cell-based; details: dose 5-20 µM, time 50.0 hrs
[26] = biological target: c-Jun N-terminal kinase, JNK (Homo sapiens) (UniProt P45983+P53779+P45984); assay: Inhibition of TGFbeta1-induced JNK phosphorylation in human LX-2 cells at 5 to 20 uM preincubated for 2 hrs followed by […] stimulation and measured after 2 hrs by Western blot analysis; assay type: cell-based; details: dose 5-20 µM, time 4.0 hrs

In the case of `COC(=O)CCC[C@@H]1[C@H]2CCCN3CCC[C@H](CN1C(=O)C(C)c1ccc(-c4ccccc4)c(F)c1)[C@@H]23` (stereo partly specified), the Activity [1] was “Active”, the inhibition [2] was “Active” and the Activity [3] was “Active”. For the same compound, the inhibition [4] was “Dose-dependent-effect”, the Activity [5] was “Active” and the inhibition [6] was “Active”. For the same compound, the Activity [7] was “Active; Dramatically Decreased The Collagen Deposition”, the Activity [8] was “Active” and the inhibition [9] was “Active”. The inhibition [10] was “Active”, the inhibition [11] was “inactive” and the inhibition [12] was “Active”. The IC50 at 48 h [13] was 38.2 µM, the inhibition [14] was “Active” and the inhibition [15] was “inactive”. For the same compound, the inhibition [16] was “Dose-dependent-effect”, the inhibition [17] was “inactive” and the Activity [18] was “Active”. The fold change (FC) [19] was 0.59, the Activity [20] was “Active; Significant Alleviation Observed” and the inhibition [21] was “Active”. The Activity [22] was “Active”, the inhibition [23] was “inactive” and the Activity [24] was “Active”. The inhibition [25] was “Active” and the inhibition [26] was “inactive”.
